Laboratory results as given in patent US20250076312A1, “BIOMARKERS FOR THE TREATMENT OF INTERSTITIAL LUNG DISEASE” (Lung Therapeutics, LLC, priority 2021, published 2025).
Square brackets hold non-standard residues; d marks the D form. Ends that are not written are not given here.

How the values were obtained:
Format in all cases: cell-based, human
pSMAD2/3 [1] = assay: SMAD2/3 phosphorylation in IPF fibroblasts; settings: 10 μM, compared to 1% DMSO vehicle or DMEM controls, FIG. 7A
Procedure: IPF fibroblasts were treated with DMEM, 1% DMSO vehicle, CSP-7 (10 μM), Var55 (10 μM), pirfenidone (500 μM), or nintedanib (100 nM). SMAD2/3 phosphorylation was determined by Western blot 24 hours following treatment. […] IPF epithelial cells were treated with DMEM (control), Var55 (100 μM), nintedanib (100 nM), control peptide 1 (CP1, 100 μM), or control peptide 2 (CP2, 100 μM). SMAD2/3 phosphorylation was determined by Western blot 24 hours following treatment. Phosphorylated SMAD2/3 protein levels were determined by normalizing to total SMAD2/3 protein (FIG. 7A and FIG. 7B). Primary lung fibroblasts from IPF patients were treated with 1% DMSO vehicle, CSP-7 (10 μM), Var55 (10 μM), pirfenidone (500 μM), or nintedanib (100 nM). SMAD2/3 phosphorylation was measured in IPF fibroblasts by a multiplex assay or Western blot analysis and phosphorylated SMAD2/3 was normalized to total SMAD2/3 protein.

pSMAD2/3 [2] = assay: SMAD2/3 phosphorylation in IPF epithelial cells; settings: 100 μM, compared to DMEM control, FIG. 7B
Procedure: IPF fibroblasts were treated with DMEM, 1% DMSO vehicle, CSP-7 (10 μM), Var55 (10 μM), pirfenidone (500 μM), or nintedanib (100 nM). SMAD2/3 phosphorylation was determined by Western blot 24 hours following treatment. […] IPF epithelial cells were treated with DMEM (control), Var55 (100 μM), nintedanib (100 nM), control peptide 1 (CP1, 100 μM), or control peptide 2 (CP2, 100 μM). SMAD2/3 phosphorylation was determined by Western blot 24 hours following treatment. Phosphorylated SMAD2/3 protein levels were determined by normalizing to total SMAD2/3 protein (FIG. 7A and FIG. 7B).
Additional experiments were performed to determine whether phosphorylation of SMAD2/3 could be used as a biomarker associated with Var55 treatment. Epithelial cells from IPF patients were treated with DMEM (control), Var55 (100 μM), nintedanib (100 nM), control peptide 1 (CP1, 100 μM), or control peptide 2 (CP2, 100 μM). SMAD2/3 phosphorylation was measured in […] by a multiplex assay or Western blot analysis and phosphorylated SMAD2/3 was normalized to total SMAD2/3 protein.

CXCL7 [3] = assay: CXCL7 ELISA in supernatant of IPF lung macrophages; settings: FIG. 14
Description: (§1) Lung macrophages were either left untreated or treated with Var55. Each line represents a biological replicate of lung macrophages from an individual control subject (triangles) or an individual with IPF (circles).
(§2) Lung macrophages were collected from humans with IPF or healthy controls and cultured in vitro. Lung macrophages were either left untreated or treated with Var55. Following treatment, supernatants from the lung macrophage cultures were collected and analyzed for CXCL7 expression by ELISA.

CXCL7 [4] = assay: CXCL7 ELISA in supernatant of healthy control lung macrophages; settings: FIG. 14
Description: as §1, §2

LDH activity = test system: LDH activity
Procedure: PCLSs were either untreated or treated with CSP-7 (10 μM or 100 μM), control peptide (CP, 100 μM), TGFβ (2 ng/mL), or pirfenidone (Pirf, 500 μM) and nintedanib (Nin, 100 nM). LDH activity was measured in the supernatant of IPF PCLSs on day 2 (left panel) or day 4 (right panel) following treatment. […] LDH activity was measured in the supernatant of IPF PCLSs on day 2 (left panel) or day 4 (right panel) following treatment.
LDH activity was also examined in the supernatants of IPF PCLSs either untreated (UT) or treated with CSP-7 (10 μM or 100 μM), control peptide (CP, 100 μM), TGFβ (2 ng/mL), or pirfenidone (Pirf, 500 μM) and nintedanib (Nin, 100 nM). LDH activity was measured using an LDH assay (Sigma-Aldrich, Cat No MAK066).

| LDH activity in PCLS supernatant (LDH activity) | Substance | phosphorylation of SMAD2/3 normalized to total SMAD2/3 (pSMAD2/3 [1]) | phosphorylation of SMAD2/3 normalized to total SMAD2/3 (pSMAD2/3 [2]) | CXCL7 in the supernatant (CXCL7 [3]) | CXCL7 in the supernatant (CXCL7 [4]) |
| --- | --- | --- | --- | --- | --- |
|  | Ac-aaEGKASFTTFTVTKGSaa-NH2 (Ac-[dA][dA]EGKASFTTFTVTKGS[dA][dA]-NH2; SMILES CC(=O)N[C@H](C)C(=O)N[C@H](C)C(=O)N[C@@H](CCC(=O)O)C(=O)NCC(=O)N[C@@H](CCCCN)C(=O)N[C@@H](C)C(=O)N[C@@H](CO)C(=O)N[C@@H](Cc1ccccc1)C(=O)N[C@H](C(=O)N[C@H](C(=O)N[C@@H](Cc1ccccc1)C(=O)N[C@H](C(=O)N[C@H](C(=O)N[C@H](C(=O)N[C@@H](CCCCN)C(=O)NCC(=O)N[C@@H](CO)C(=O)N[C@H](C)C(=O)N[C@H](C)C(N)=O)[C@@H](C)O)C(C)C)[C@@H](C)O)[C@@H](C)O)[C@@H](C)O) [Var55] | no difference | reduced phosphorylation | significant reduction | significant reduction |
| slight reduction | FTTFTVT [CSP-7, FTTFTVT] |  |  |  |  |
